The values that follow come from patent US11414437B2, “Borate compound, and synthesis method therefor and uses thereof” (CHENGDU ORIGIN BIOTECHNOLOGY LIMITED COMPANY, priority 2017, dated 2022).

Read-outs that look alike come from different tables or passages of the source.

For one data set, the target named is hERG potassium channel (Homo sapiens, UniProt Q12809). Kind of data set: Inhibition test of hERG potassium channel of heart (patch clamp). Format: cell-based. An excerpt:
An inhibitory effect of the tested compound on hERG was judged by a general standard (Roche O. et al. ChemBioChem. 2002, 3:455-459.):
When a hERG semi-inhibitory concentration of a medicine exceeded about 30 times of a peak concentration thereof in blood, the concentration was in a relatively safe range (Redfernelt al, Cardiovascular Research, 58, 32-45 (2003)).

For data set [1], the system named is MM.1S human multiple myeloma SCID mouse transplanted tumor. Description: Pharmacodynamic test, SCID mouse transplanted tumor model. In kind it is in vivo. The settings on record: 0.0166 mmol/kg intragastric. The procedure: In the experiment, a SCID mouse transplanted tumor model of a human multiple myeloma cell line MM.1S was used. Specific modeling steps were as follows: frozen MM.1S cells were resuscitated and cultured in vitro according to a routine, and the cells were collected in a logarithmic growth phase, and diluted with PBS to form a tumor cell suspension with a concentration of 5×10^7/ml. […] About 1 week to 2 weeks after injection, the mass was palpable in axillary, and in vivo passage was performed when a tumor volume was larger than 500 mm^3. After the mouse was killed by a neck pulling method, a body surface was disinfected, skin was cut open, aseptic operation was performed, a tumor tissue was peeled off from an axillary subcutaneous tissue, a fibrous capsule was removed, and the tumor was taken out. The tumor was washed clean in normal saline, and then cut, and after removing the central necrotic part, the tumor tissue with good growth, reddish color and fish flesh shape was selected, then was cut into 1 mm×1 mm×1 mm small pieces, and placed in normal saline for later use. The cut tumor was placed in a mouth of a No. 18 trocar, iodized cotton was used to disinfect the side of the armpit close to the back of the mouse, and local inoculation was performed. The transplanted tumor used in the test was the 4th generation of in vivo passage. When the tumor volume of most SCID mice of in vivo passage was larger than 100 mm^3, the tumor volume was measured and calculated, and the mice were randomly grouped according to the tumor volume.
The administration mode was intragastric administration through mouth, with an administration volume of 10 ml/kg. The model control group was given the same volume of solvent intragastrically. The mice were all intragastrically administrated through mouth twice a week for a total of 5 times, i.e., the mice were administrated at the 1st, 5th, 8th, 12th and 15th days of the experiment, with a duration of 18 days.
Doses of different tested samples were equimolar, with a specific dose of 0.0166 mmol/kg; and the model control group was only given normal saline. The medicines were 8b and 8l, as well as Ixazomib Citrate (MLN9708) and Ixazomib (MLN2238).
On the 5th, 8th, 12th, 15th and 18th days after administration, a short diameter (a) and a long diameter (b) of the tumor of each mouse were measured with a vernier caliper, and the tumor volume was calculated according to a formula (a^2×b)/2. A relative tumor volume (RTV) was calculated based on the tumor volume measured and calculated, RTV=Vt/V0. V0 was the tumor volume at random grouping (i.e., d0) and Vt was the tumor volume at each measurement (i.e., dn). A relative tumor proliferation rate of an anti-tumor activity evaluation index was calculated according to the following formula: relative tumor proliferation rate T/C (%): […]
(Note: TRTV was a RTV of the treatment group; and CRTV was a RTV of the model control group. An evaluation standard of a curative effect was T/C %≤40%, and the medicine was effective when P<0.05 after statistical treatment).
After weighing and measuring the tumor on the 18th day, all animals were sacrificed, and the tumor was taken and weighed.

The nature of data set [2]: High-temperature and high-humidity accelerated stability test. Format: physicochemical. The settings on record: compared with compounds 8l, MLN9708, MLN2238 of the prior art. An excerpt: In addition, the compound of the present invention has better stability.
The next data set deals with SD rats. The source says: The test was a single-dose toxicity test of SD rats by intragastric administration through mouth.
[3] abbreviates: dose 2, 0.001662 mmol/kg single intragastric dose, 6 female rats, 14 days observation.
The mark [4] stands for this setting: dose 2, 0.001662 mmol/kg single intragastric dose, 6 male rats, 14 days observation.
Where [5] appears, read: dose 4, 0.00277 mmol/kg single intragastric dose, 6 female rats, 14 days observation.
[6] abbreviates: dose 4, 0.00277 mmol/kg single intragastric dose, 6 male rats, 14 days observation.

hERG potassium channel, sequence (Q12809 whole entry): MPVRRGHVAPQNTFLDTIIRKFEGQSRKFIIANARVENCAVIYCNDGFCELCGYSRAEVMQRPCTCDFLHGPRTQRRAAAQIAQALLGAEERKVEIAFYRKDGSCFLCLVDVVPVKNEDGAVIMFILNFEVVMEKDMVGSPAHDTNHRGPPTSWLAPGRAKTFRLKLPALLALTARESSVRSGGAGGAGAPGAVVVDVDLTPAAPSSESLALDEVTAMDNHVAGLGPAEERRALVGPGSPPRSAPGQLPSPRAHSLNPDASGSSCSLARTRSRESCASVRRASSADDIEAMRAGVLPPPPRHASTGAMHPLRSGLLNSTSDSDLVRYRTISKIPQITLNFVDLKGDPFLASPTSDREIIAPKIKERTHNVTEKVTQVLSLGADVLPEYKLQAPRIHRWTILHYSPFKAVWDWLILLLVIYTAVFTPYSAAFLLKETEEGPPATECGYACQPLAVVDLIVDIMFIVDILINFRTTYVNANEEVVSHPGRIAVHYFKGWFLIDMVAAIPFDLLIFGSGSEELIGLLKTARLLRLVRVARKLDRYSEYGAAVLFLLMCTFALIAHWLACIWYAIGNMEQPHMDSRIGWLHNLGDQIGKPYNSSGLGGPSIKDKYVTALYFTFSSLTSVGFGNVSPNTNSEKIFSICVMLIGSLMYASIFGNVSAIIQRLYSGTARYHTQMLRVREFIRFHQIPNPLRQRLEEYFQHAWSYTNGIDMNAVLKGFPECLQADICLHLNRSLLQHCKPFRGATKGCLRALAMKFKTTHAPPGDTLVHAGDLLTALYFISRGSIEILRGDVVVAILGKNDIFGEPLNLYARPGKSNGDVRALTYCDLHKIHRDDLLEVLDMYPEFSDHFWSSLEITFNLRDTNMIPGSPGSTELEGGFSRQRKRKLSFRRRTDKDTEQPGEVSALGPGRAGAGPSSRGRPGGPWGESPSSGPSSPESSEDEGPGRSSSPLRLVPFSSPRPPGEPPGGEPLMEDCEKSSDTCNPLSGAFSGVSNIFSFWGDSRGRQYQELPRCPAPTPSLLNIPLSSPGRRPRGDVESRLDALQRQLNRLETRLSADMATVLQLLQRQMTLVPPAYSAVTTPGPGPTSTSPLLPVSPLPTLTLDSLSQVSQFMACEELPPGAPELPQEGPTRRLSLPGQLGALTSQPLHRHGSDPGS

The term IC50 denotes the concentration needed to halve the response being measured. Read a high IC50 as weaker potency. For `CC(C)C[C@H](NC(=O)CNC(=O)c1cc(Br)ccc1Cl)B1OC(=O)[C@@H](c2ccccc2)O1` [compound 8b, 2-chloro-5-bromo-N-[2-({(1R)-3-methyl-1-[(5R)-4-oxo-5-phenyl-1,3,2-dioxaborolan-2-yl]butyl}amino)-2-oxoethyl]benzamide], the “inhibitory effect on the hERG potassium channel (judged by general standard)” value against hERG potassium channel (judged by the standard of b169) is “no inhibitory effect”. Also, on hERG potassium channel (patch clamp, n 3), the IC50 is > 30 µM. Further, the “inhibition of tumor growth (in words)” value in data set [1] (stronger than 8l, MLN9708, MLN2238 (p<0.01)) is reported as “significantly inhibited tumor growth”. Further, in data set [1] (after the 18th day, X ± SD), the “Tumor weight” value came to 0.028 ± 0.025 g. In addition, the “stability under high-temperature and high-humidity accelerated test condition” value in data set [2] is listed as “better stabilities”. The “Female Suvival” value turned out to be 6 in the data set with SD rats (dose 1, 0.001108 mmol/kg single intragastric dose, 6 female rats, 14 days observation); 6 in the data set with SD rats (setting [3]); 6 in the data set on SD rats (dose 3, 0.002216 mmol/kg single intragastric dose, 6 female rats, 14 days observation); 4 with SD rats (setting [5]). Besides, the “Male Suvival” value amounted to 6 with SD rats (dose 1, 0.001108 mmol/kg single intragastric dose, 6 male rats, 14 days observation); 6 with SD rats (setting [4]); 6 in the data set with SD rats (dose 3, 0.002216 mmol/kg single intragastric dose, 6 male rats, 14 days observation); 6 in the data set with SD rats (setting [6]). Moreover, the “Female Death” value in the data set with SD rats (setting [3]) worked out at 0; with SD rats (setting [5]) it was 2; with SD rats (female, rat, in vivo, 0.001108 mmol/kg, 14 days), 0; in the data set on SD rats (female, rat, in vivo, 0.002216 mmol/kg, 14 days) it was 0. For the same molecule, the “Male Death” value with SD rats (setting [4]) turned out to be 0; with SD rats (setting [6]), 0; in the data set with SD rats (male, rat, in vivo, 0.001108 mmol/kg, 14 days), 0; in the data set on SD rats (male, rat, in vivo, 0.002216 mmol/kg, 14 days), 0. In addition, the maximum tolerance dose in the data set on SD rats (female rats, single intragastric dose) came to 0.002216 mmol/kg.
